Test results: patent US20110045032A1 (priority 2001, published 2011)

Experiments:
[1] = tested on: dust mite-sensitized rabbits; assay: Adenosine sensitivity PC40 (Example 25 animals); settings: 4 animals
[2] = tested on: dust mite-sensitized rabbits; assay: Adenosine sensitivity PC40 (Example 26 animals); settings: 5 animals
[3] = tested on: patients with mild-to-moderate asthma; settings: cited from earlier work
mast cell = settings: cell incubation for 5 min; cited from earlier work
[4] = tested on: adult acute asthma exacerbation; settings: in conjunction with beta 2-agonists; adult and pediatric studies; cited from earlier work
HT-29 SF cells [5] = assay: Reversal of DHEA-mediated growth inhibition by supplements; format: cell-based, human; settings: 25 μM DHEA, 48 hours of treatment
HT-29 SF cells [6] = assay: Reversal of DHEA effect on cell cycle by supplements; format: cell-based, human; settings: 25 μM DHEA
[7] = tested on: Intracellular Adenosine in various Rat Tissues; format: in vivo
Protocol: Folinic acid (50 mg/kg) was administered intraperitoneally once daily for fourteen days. […] Hearts were removed from animals and flash frozen in liquid nitrogen with 10 seconds of death. Liver and lungs were removed en bloc and flash frozen with 30 seconds of death. Brain tissue was subsequently dissected.

[8] = tested on: asthmatic and chronic obstructive pulmonary disease (COPD) patients; settings: cited from earlier work
[9] = biological target: T1, M(1)-muscarinic receptors (Homo sapiens, UniProt P11229); settings: cited from earlier work
T1 sequence (P11229 1-460): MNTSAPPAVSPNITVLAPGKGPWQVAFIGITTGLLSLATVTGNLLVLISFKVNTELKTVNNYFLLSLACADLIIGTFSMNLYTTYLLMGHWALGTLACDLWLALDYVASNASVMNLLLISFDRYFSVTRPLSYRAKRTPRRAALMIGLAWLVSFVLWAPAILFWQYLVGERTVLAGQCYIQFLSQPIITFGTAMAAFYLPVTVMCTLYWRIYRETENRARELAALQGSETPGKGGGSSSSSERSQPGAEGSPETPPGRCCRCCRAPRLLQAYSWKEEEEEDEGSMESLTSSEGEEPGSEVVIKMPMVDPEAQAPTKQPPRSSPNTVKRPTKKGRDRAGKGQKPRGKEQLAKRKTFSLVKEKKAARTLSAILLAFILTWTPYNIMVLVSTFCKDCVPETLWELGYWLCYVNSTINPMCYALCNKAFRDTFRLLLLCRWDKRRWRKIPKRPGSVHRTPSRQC

muscarinic receptors = settings: cited from earlier work
mast cells = settings: cited from earlier work
HT-29 SF cells [10] = assay: DHEA effect on cell cycle distribution (flow cytometry); format: cell-based, human; settings: 25-200 μM, 24-72 hours; time- and dose-dependent
Protocol: Cells were plated at 10^5/60-mm dish in duplicate. […] Cultures were trypsinized following […] and fixed and stained using a modification of a procedure of Bauer et al., Cancer Res., 46, 3173-3178 (1986). Briefly, cells were collected by centrifugation and resuspended in cold phosphate-buffered saline. Cells were fixed in 70% ethanol, washed, and resuspended in phosphate-buffered saline.
After 24, 48, and 72 hours, cells were harvested, fixed in ethanol, and stained with propidium iodide, and the DNA content/cell was determined by flow cytometric analysis. The percentage of cells in G1, S, and G2M phases was calculated using the Cellfit cell cycle analysis program. S phase is marked by a quadrangle for clarity. Representative histograms from duplicate determinations are shown. The experiment was repeated three times.

HT-29 SF cells [11] = assay: DHEA effect on cell growth (Coulter counter)
Protocol: Cell cultures, HT-29 SF cells, which represent a subline of HY-29 cells (ATCC, Rockville, Md.) and are adapted for growth in completely defined serum-free PC-1 medium (Ventrex, Portland, Me.), were obtained. Stock cultures were maintained in this medium at 37° (in a humidified atmosphere containing 5% CO2).

Q: Which “PC40 for adenosine, mean” value [1] does the source give for `Nc1ncnc2c1ncn2[C@@H]1O[C@H](CO)[C@@H](O)[C@H]1O` [adenosine] here?
A: The value was 2.5 mg/mL.

Q: And the “PC40 for adenosine, mean” value [2]?
A: The value was 4.5 mg/mL.

Q: For `CC(c1cc2ccccc2s1)N(O)C(N)=O` (stereo not drawn) [Zyflo], which “beta-agonist puffs per day lower than baseline” value ([3]; at the end of the study) is on record?
A: Its value is 31%.

Q: What about the “number of beta-agonist puffs needed per day” value ([3]; at the end of the study) of the same compound?
A: Its value is 1.77 puffs.

Q: What about the “patients requiring steroid rescue” value ([3]; compared with 18.7% placebo) of the same compound?
A: The value was 7%.

Q: What about the “reduction in patients requiring steroid rescue vs placebo” value ([3]; human, in vivo) of the same compound?
A: The value was 62%.

Q: With `CN1[C@@H]2CC[C@H]1C[C@@H](OC(=O)C(CO)c1ccccc1)C2` (stereo partly drawn) [atropine] as the compound, how does the “inhibition of histamine release” value (mast cell) read?
A: Its value is “no distinction”.

Q: Which results are given for `CC(C)[N+]1(C)[C@@H]2CC[C@H]1C[C@@H](OC(=O)C(CO)c1ccccc1)C2` (stereo partly drawn) [IB, Ipratropium Bromide]?
A: inhibition of histamine release (mast cell): no distinction; severe adverse effects attributable to ipratropium [4]: Neither the adult nor the pediatric studies reported severe adverse effects

Q: For `CC(C)=CCC/C(C)=C/CC/C(C)=C/CC/C=C(\C)CC/C=C(\C)CCC=C(C)C` [SQ, squalene], which “reversal of DHEA-induced growth inhibition by supplement” value (HT-29 SF cells [5]) is on record?
A: The value was “no such effect”.

Q: Which “reversal of DHEA-induced growth inhibition by supplement” value (HT-29 SF cells [5]) does the source give for `C[C@@](O)(CCO)CC(=O)O` [MVA, mevalonic acid] here?
A: Its value is “partially overcome”.

Q: And the “prevention of DHEA-induced S phase depletion” value (“prevention” below) (HT-29 SF cells [6]; 48 hours)?
A: The value was “partially prevented”.

Q: And the “prevention” value (HT-29 SF cells [6]; 72 hours)?
A: Its value is “not”.

Q: With `CC(C)CCC[C@@H](C)[C@H]1CC[C@H]2[C@@H]3CC=C4C[C@@H](O)CC[C@]4(C)[C@H]3CC[C@]12C` [CH, cholesterol] as the compound, how does the “reversal of DHEA-induced growth inhibition by supplement” value (HT-29 SF cells [5]) read?
A: Its value is “no such effect”.

Q: And the “prevention” value (HT-29 SF cells [6]; 48 hours)?
A: The value was “very little effect”.

Q: For `Nc1nc(=O)c2c([nH]1)NCC(CNc1ccc(C(=O)N[C@@H](CCC(=O)O)C(=O)O)cc1)N2C=O` (mixture of isomers) [Folinic Acid, Folinic acid], which “adenosine levels, folinic acid administered alone” value ([7]; all organs studied) is on record?
A: Its value is “increase in adenosine levels”.

Q: What about the “effect of co-administration of folinic acid on steroid-mediated adenosine depletion” value ([7]; co-administered with DHEA or methyltestosterone) of the same compound?
A: The value was “completely abrogated”.

Q: For `C[N+]1(C)[C@@H]2C[C@@H](OC(=O)C(O)(c3cccs3)c3cccs3)C[C@H]1[C@@H]1O[C@@H]12` [tiotropium bromide, Tiotropium bromide], which “duration of bronchodilator and bronchoprotective effect” value ([8]; Phase II, single inhaled doses) is on record?
A: Its value is “over 24 h”.

Q: And the “patients with dryness of the mouth” value ([8]; human, in vivo)?
A: The value was “approximately 10%”.

Q: And the “duration of stable bronchodilation” value ([8]; phase III clinical trials, inhaled once daily)?
A: The value was “more than 24 hours”.

Q: What about the dissociation from receptor [9] of the same compound?
A: Its dissociation from receptor is “dissociates very slowly”.

Q: And the “affinity for muscarinic receptors” value (muscarinic receptors)?
A: Its value is “high affinity”.

Q: With `CCC(CO)(C(=O)OC1C[C@H]2CC[C@@H](C1)[N+]2(C)C)c1ccccc1.[I-]` (stereo partly drawn) [troventol] as the compound, how does the “decrease in speed of passive calcium ion uptake” value (mast cells) read?
A: The value was 56.3%.

Q: And the “inhibition of histamine release” value (mast cell)?
A: The value was 47%.

Q: For `C[C@]12CC[C@H](O)CC1=CC[C@@H]1[C@@H]2CC[C@]2(C)C(=O)CC[C@@H]12` [DHEA, dehydroepiandrosterone], which “cell cycle effect (overall)” value (HT-29 SF cells [10]) is on record?
A: Its value is “G1 block”.

Q: What about the inhibition of growth (HT-29 SF cells [11]; 0-200 μM, 0-72 hours) of the same compound?
A: Its inhibition of growth is “time- and dose-dependent inhibition of growth”.

Q: And the “exposure time after which cell number reduced compared to controls” value (HT-29 SF cells [11]; 25 or 50 μM DHEA)?
A: The value was 48 h.
